Test results: patent US20100056524A1, “Compound” (priority 2008, published 2010)
Counter-ions that a name gives are not always drawn.

Tests used:
P38b MAPK = biological target: T1, P38b MAPK (Homo sapiens, UniProt Q15759); experiment: P38b MAPK protein kinase assay; format: biochemical; conditions: P38b MAPK, read-out: residual kinase activity; for remaining activity at 1 µM: 1 μM compound; for remaining activity at 10 µM: 10 μM compound
T1 construct: All protein kinases were of human origin and encoded full length proteins, unless indicated otherwise; made in house
Text: (§1) All protein kinases were of human origin and encoded full length proteins, unless indicated otherwise. They were either expressed as glutathione S-transferase (GST) fusion proteins in Escherichia Coli or as hexahistidine (His6)-tagged proteins in insect Sf21 cells. GST fusion proteins were purified by affinity chromatography on glutathione-Sepharose, and His6-tagged proteins on nickel/nitriloacetate-agarose. The procedures for expressing some of the protein kinases used herein have been detailed previously.^8,9 The following sections outline the DNA vectors synthesised and the procedures used to express and purifying protein kinases that have not been reported previously.
(§2) All assays (25.5 μl) were carried out at room temperature (21° C.) and were linear with respect to time and enzyme concentration under the conditions used. Assays were performed for 30 min using Multidrop Micro reagent dispensers (Thermo Electron Corporation, Waltham, Mass. 02454, USA) in a 96-well format. The concentration of magnesium acetate in the assays was 10 mM and the [γ-33P] ATP (800 cpm/pmol) was used at 5, 20 or 50 μM as indicated, in order to be at or below the Km for ATP for each enzyme. Protein kinases assayed at 5 μM ATP were: —ERK1, ERK8, PKBα, MARK3, Aurora C. Protein kinases assayed at 20 μM ATP were: —JNK1, PDK1, CHK1, CHK2, CDK2 and Aurora B. Protein kinases assayed at 50 μM ATP were: —MNK2, IKKepsilon and TBK1.
(§3) The assays were initiated with MgATP, stopped by addition of 5 μl of 0.5 M orthophosphoric acid and spotted on to P81 filterplates using a unifilter harvester (PerkinElmer, Boston, Mass. 02118, USA). The IC50 values of inhibitors were determined after carrying out assays at 10 different concentrations of each compound.
(§4) Unless stated otherwise, enzymes were diluted in 50 mM Tris/HCl pH 7.5, 0.1 mM EGTA, 1 mg/ml BSA, 0.1% (v/v) 2-mercaptoethanol and assayed in 50 mM Tris/HCl pH 7.5, 0.1 mM EGTA, 0.1% (v/v) 2-mercaptoethanol.

p38s MAPK = biological target: T2, p38s MAPK (Homo sapiens, UniProt O15264); experiment: p38s MAPK protein kinase assay; format: biochemical; conditions: p38s MAPK, read-out: residual kinase activity; for remaining activity at 1 µM: 1 μM compound; for remaining activity at 10 µM: 10 μM compound
T2 construct: All protein kinases were of human origin and encoded full length proteins, unless indicated otherwise; made in house
T2 sequence (O15264 1-365): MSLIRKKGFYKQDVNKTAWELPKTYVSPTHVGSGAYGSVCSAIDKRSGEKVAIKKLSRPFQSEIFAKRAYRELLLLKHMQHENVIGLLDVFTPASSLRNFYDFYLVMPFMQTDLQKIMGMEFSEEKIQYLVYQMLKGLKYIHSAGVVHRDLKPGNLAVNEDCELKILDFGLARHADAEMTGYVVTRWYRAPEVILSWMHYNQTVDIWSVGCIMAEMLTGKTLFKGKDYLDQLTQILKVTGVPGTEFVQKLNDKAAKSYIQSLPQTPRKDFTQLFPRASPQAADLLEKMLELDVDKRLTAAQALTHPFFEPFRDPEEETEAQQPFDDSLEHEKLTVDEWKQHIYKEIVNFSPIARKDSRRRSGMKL
Text: as §1, §2, §3, §4

MSK1 = biological target: T3, MSK1 (Homo sapiens, UniProt O75582); experiment: MSK1 protein kinase assay; format: biochemical; conditions: MSK1, read-out: residual kinase activity; for remaining activity at 1 µM: 1 μM compound; for remaining activity at 10 µM: 10 μM compound
T3 construct: All protein kinases were of human origin and encoded full length proteins, unless indicated otherwise; made in house
Text: as §1, §2, §3, §4

MNK1 = biological target: T4, MNK1 (Homo sapiens, UniProt Q9BUB5); experiment: MNK1 protein kinase assay; format: biochemical; conditions: MNK1, read-out: residual kinase activity; for remaining activity at 1 µM: 1 μM compound; for remaining activity at 10 µM: 10 μM compound
T4 construct: All protein kinases were of human origin and encoded full length proteins, unless indicated otherwise; made in house
Text: as §1, §2, §3, §4

PLK1 (Okadaic Acid) = biological target: T5, PLK1 (Okadaic Acid) (Homo sapiens, UniProt P53350); experiment: PLK1 (Okadaic Acid) protein kinase assay; format: biochemical; conditions: PLK1 (Okadaic Acid), read-out: residual kinase activity; for remaining activity at 1 µM: 1 μM compound; for remaining activity at 10 µM: 10 μM compound
T5 construct: All protein kinases were of human origin and encoded full length proteins, unless indicated otherwise; made in house; host or cells: probably Sf21 insect cells treated with okadaic acid (inferred from the row name; the text says this only of Aurora B and C)
Text: as §1, §2, §3, §4

NEK6 = biological target: T6, NEK6 (Homo sapiens, UniProt Q9HC98); experiment: NEK6 protein kinase assay; format: biochemical; conditions: NEK6, read-out: residual kinase activity; for remaining activity at 1 µM: 1 μM compound; for remaining activity at 10 µM: 10 μM compound
T6 construct: All protein kinases were of human origin and encoded full length proteins, unless indicated otherwise; made in house
Text: as §1, §2, §3, §4

HIPK2 = biological target: T7, HIPK2 (Homo sapiens, UniProt Q9H2X6); experiment: HIPK2 protein kinase assay; format: biochemical; conditions: HIPK2, read-out: residual kinase activity; for remaining activity at 1 µM: 1 μM compound; for remaining activity at 10 µM: 10 μM compound
T7 construct: All protein kinases were of human origin and encoded full length proteins, unless indicated otherwise; made in house
Text: as §1, §2, §3, §4

CSK = biological target: T8, CSK (Homo sapiens, UniProt P41240); experiment: CSK protein kinase assay; format: biochemical; conditions: CSK, read-out: residual kinase activity; for remaining activity at 1 µM: 1 μM compound; for remaining activity at 10 µM: 10 μM compound
T8 construct: All protein kinases were of human origin and encoded full length proteins, unless indicated otherwise; made in house
Text: as §1, §2, §3, §4

IRR = IRR protein kinase assay; format: biochemical, human; conditions: IRR
Text: as §1, §2, §3, §4

SYK = biological target: T9, SYK (Homo sapiens, UniProt P43405); experiment: SYK protein kinase assay; format: biochemical; conditions: SYK, read-out: residual kinase activity; for remaining activity at 1 µM: 1 μM compound; for remaining activity at 10 µM: 10 μM compound
T9 construct: All protein kinases were of human origin and encoded full length proteins, unless indicated otherwise; made in house
Text: as §1, §2, §3, §4

BTK = biological target: T10, BTK (Homo sapiens, UniProt Q06187); experiment: BTK protein kinase assay; format: biochemical; conditions: BTK, read-out: residual kinase activity; for remaining activity at 1 µM: 1 μM compound; for remaining activity at 10 µM: 10 μM compound
T10 construct: All protein kinases were of human origin and encoded full length proteins, unless indicated otherwise; made in house
Text: as §1, §2, §3, §4

T8 sequence (P41240 whole entry): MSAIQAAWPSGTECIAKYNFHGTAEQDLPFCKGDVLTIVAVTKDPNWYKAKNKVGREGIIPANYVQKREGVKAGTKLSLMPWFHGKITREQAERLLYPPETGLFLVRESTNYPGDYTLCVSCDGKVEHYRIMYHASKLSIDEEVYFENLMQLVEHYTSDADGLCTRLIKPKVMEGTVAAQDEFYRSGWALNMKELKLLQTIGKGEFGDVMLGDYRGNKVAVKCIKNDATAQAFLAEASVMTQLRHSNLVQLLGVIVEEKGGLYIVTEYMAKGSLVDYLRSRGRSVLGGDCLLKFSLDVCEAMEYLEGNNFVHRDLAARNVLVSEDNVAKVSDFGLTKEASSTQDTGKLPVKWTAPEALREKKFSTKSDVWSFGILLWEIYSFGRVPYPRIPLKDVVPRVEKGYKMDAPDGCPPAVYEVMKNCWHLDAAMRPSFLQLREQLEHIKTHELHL
T6 sequence (Q9HC98 whole entry): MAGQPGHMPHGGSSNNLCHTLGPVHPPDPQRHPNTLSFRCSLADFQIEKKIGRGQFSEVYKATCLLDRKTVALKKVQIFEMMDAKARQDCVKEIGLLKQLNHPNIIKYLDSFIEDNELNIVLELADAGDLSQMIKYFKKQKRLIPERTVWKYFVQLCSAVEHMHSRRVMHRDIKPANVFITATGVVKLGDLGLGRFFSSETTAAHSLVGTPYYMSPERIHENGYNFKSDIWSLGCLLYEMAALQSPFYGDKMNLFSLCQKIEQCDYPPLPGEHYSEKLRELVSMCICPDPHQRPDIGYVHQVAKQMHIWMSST
T10 sequence (Q06187 whole entry): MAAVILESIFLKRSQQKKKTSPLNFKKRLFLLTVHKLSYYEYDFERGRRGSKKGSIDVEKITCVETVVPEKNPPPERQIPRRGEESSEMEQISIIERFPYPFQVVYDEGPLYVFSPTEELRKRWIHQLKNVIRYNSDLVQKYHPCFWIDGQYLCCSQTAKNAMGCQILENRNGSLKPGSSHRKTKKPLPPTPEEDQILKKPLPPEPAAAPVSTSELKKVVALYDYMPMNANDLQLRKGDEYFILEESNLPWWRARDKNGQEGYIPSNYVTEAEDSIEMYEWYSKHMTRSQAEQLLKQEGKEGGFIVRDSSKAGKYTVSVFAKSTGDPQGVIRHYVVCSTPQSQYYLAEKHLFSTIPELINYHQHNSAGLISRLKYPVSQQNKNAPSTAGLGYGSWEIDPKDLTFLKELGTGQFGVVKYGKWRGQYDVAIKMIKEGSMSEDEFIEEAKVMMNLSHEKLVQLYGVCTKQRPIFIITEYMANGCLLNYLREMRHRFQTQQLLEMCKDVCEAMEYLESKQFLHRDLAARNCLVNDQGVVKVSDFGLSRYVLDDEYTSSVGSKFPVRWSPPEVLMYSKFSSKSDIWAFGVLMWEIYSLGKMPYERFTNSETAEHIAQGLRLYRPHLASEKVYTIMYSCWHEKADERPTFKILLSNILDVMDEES
T1 sequence (Q15759 whole entry): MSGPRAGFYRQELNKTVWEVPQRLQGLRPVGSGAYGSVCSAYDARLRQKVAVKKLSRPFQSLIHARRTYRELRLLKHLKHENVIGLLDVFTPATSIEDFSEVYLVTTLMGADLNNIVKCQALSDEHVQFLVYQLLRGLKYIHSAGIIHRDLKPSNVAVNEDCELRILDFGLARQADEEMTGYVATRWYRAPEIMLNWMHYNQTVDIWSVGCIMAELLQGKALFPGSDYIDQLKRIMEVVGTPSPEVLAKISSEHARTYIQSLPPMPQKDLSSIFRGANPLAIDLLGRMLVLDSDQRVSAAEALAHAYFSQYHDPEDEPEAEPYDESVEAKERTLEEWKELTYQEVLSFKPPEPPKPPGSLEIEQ
T5 sequence (P53350 whole entry): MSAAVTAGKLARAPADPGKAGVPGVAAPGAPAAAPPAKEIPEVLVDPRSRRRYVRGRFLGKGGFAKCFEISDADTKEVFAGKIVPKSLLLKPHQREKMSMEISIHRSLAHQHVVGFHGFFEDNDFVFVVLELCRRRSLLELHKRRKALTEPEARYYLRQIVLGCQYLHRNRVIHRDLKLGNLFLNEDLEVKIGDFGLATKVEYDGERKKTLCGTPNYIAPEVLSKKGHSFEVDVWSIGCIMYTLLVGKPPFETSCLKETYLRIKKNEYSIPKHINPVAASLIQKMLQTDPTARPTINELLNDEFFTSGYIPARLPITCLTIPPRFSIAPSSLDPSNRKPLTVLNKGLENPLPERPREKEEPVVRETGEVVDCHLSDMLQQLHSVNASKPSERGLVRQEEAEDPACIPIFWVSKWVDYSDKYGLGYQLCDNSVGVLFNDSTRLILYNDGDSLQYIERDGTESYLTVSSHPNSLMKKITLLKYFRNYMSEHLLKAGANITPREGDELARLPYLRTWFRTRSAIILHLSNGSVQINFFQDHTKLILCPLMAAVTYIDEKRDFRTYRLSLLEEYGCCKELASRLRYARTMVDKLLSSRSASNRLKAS
T3 sequence (O75582 whole entry): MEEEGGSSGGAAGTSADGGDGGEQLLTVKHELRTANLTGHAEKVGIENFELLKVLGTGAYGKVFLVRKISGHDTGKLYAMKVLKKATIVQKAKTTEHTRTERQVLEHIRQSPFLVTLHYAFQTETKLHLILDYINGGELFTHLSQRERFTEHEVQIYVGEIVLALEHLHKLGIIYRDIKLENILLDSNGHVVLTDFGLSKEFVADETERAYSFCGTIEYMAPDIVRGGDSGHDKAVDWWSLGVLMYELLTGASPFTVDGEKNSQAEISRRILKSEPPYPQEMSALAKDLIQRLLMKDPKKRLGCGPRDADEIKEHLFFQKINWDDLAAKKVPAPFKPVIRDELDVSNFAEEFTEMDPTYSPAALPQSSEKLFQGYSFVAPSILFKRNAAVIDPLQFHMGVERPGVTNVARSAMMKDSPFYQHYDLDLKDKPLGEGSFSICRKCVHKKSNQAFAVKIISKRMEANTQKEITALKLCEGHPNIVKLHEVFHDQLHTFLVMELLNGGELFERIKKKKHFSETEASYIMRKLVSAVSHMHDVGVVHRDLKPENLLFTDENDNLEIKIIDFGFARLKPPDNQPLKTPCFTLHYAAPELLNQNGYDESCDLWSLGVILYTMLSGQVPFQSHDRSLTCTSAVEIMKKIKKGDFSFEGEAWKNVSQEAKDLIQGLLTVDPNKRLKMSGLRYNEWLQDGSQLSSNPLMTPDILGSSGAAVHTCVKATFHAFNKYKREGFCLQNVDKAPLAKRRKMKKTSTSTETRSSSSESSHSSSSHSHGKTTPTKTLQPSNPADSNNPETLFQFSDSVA
T4 sequence (Q9BUB5 whole entry): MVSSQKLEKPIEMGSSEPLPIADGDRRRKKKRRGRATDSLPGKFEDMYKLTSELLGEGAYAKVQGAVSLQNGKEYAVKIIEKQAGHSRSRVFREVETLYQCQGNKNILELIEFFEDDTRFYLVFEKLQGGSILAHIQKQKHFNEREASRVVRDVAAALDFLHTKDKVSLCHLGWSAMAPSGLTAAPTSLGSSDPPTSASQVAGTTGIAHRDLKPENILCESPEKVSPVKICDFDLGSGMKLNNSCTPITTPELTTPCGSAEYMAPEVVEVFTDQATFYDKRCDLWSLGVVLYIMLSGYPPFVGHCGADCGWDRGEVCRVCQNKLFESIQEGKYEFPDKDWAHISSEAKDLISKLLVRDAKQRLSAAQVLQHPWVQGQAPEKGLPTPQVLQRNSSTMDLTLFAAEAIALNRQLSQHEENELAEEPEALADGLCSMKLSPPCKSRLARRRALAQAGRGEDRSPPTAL
T7 sequence (Q9H2X6 165-564 limits assumed): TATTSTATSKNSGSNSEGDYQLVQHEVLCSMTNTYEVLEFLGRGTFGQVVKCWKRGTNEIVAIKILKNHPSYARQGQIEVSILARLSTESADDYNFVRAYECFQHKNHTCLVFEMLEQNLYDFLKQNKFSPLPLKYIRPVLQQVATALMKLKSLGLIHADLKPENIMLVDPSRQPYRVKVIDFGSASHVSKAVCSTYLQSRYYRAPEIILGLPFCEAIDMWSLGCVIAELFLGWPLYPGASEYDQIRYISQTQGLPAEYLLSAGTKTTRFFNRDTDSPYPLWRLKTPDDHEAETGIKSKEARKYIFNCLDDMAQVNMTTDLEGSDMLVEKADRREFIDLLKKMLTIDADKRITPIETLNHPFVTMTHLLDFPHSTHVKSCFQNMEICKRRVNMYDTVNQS

Structure (SMILES)	remaining activity at 1 µM (P38b MAPK) [%]	remaining activity at 10 µM (P38b MAPK) [%]	remaining activity at 1 µM (p38s MAPK) [%]	remaining activity at 10 µM (p38s MAPK) [%]	remaining activity at 1 µM (MSK1) [%]	remaining activity at 10 µM (MSK1) [%]	remaining activity at 1 µM (MNK1) [%]	remaining activity at 10 µM (MNK1) [%]	remaining activity at 1 µM (PLK1 (Okadaic Acid)) [%]	remaining activity at 10 µM (PLK1 (Okadaic Acid)) [%]	remaining activity at 1 µM (NEK6) [%]	remaining activity at 10 µM (NEK6) [%]	remaining activity at 1 µM (HIPK2) [%]	remaining activity at 10 µM (HIPK2) [%]	remaining activity at 1 µM (CSK) [%]	remaining activity at 10 µM (CSK) [%]	residual kinase activity (IRR; 1 μM compound) [%]	residual kinase activity (IRR; 10 μM compound) [%]	remaining activity at 1 µM (SYK) [%]	remaining activity at 10 µM (SYK) [%]	other results
O=C(NCCCNc1nc(Nc2cccc(N3CCCC3=O)c2)ncc1C1CC1)c1cccs1 [Example 47, Thiophene-2-carboxylic acid (3-{5-cyclopropyl-2-[3-(2-oxo-pyrrolidin-1-yl)-phenylamino]-pyrimidin-4-ylamino}-propyl)-amide. Hydrochloride salt]	99	90	84	84	61	54	93	73	90	64	65	65	88	67	77	71	64	25	82	49	remaining activity at 1 µM (BTK): 93%; remaining activity at 10 µM (BTK): 61%
O=C(NCCCNc1nc(Nc2cccnc2)ncc1C1CC1)c1cccs1 [Example 50, Thiophene-2-carboxylic acid {3-[5-cyclopropyl-2-(pyridin-3-ylamino)-pyrimidin-4-ylamino]-propyl}-amide]	99	89	79	67	77	70	94	81	82	60	107	103	83	54	79	60	39	17	83	60	remaining activity at 1 µM (BTK): 93%; remaining activity at 10 µM (BTK): 66%
